Source: PubChem BioAssay (NCI)
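In this assay, cells in 96-well plates receive the compound at five concentrations for 48 hours. Endpoints are linearly interpolated between the surrounding concentrations. TGI denotes the concentration required for complete inhibition of growth.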

Key:
Assay in all cases: inhibition of tumour cell growth, NCI panel, 48 h
[1] = tested on: 786-0 renal
[2] = tested on: A498 renal
[3] = tested on: A549 NSCLC
[4] = tested on: ACHN renal
[5] = tested on: BT-549 breast
[6] = tested on: CAKI-1 renal
[7] = tested on: CCRF-CEM leukemia
[8] = tested on: COLO 205 colon
[9] = tested on: DU-145 prostate
[10] = tested on: EKVX NSCLC
[11] = tested on: HCC-2998 colon
[12] = tested on: HCT-116 colon
[13] = tested on: HCT-15 colon
[14] = tested on: HL-60(TB) leukemia
[15] = tested on: HOP-62 NSCLC
[16] = tested on: HOP-92 NSCLC
[17] = tested on: HS 578T breast
[18] = tested on: HT29 colon
[19] = tested on: IGROV1 ovarian
[20] = tested on: K-562 leukemia
[21] = tested on: KM12 colon
[22] = tested on: LOX IMVI melanoma
[23] = tested on: M14 melanoma
[24] = tested on: MALME-3M melanoma
[25] = tested on: MCF7 breast
[26] = tested on: MDA-MB-231 breast
[27] = tested on: MDA-MB-435
[28] = tested on: MDA-N
[29] = tested on: MOLT-4 leukemia
[30] = tested on: NCI-H226 lung
[31] = tested on: NCI-H23 lung
[32] = tested on: NCI-H460 lung
[33] = tested on: NCI-H522 lung
[34] = tested on: NCI/ADR-RES ovarian
[35] = tested on: OVCAR-3 ovarian
[36] = tested on: OVCAR-4 ovarian
[37] = tested on: OVCAR-5 ovarian
[38] = tested on: OVCAR-8 ovarian
[39] = tested on: PC-3 prostate
[40] = tested on: RPMI-8226 leukemia
[41] = tested on: RXF 393 renal
[42] = tested on: SF-268 CNS
[43] = tested on: SF-295 CNS
[44] = tested on: SF-539 CNS
[45] = tested on: SK-MEL-2 melanoma
[46] = tested on: SK-MEL-5 melanoma
[47] = tested on: SK-OV-3 ovarian
[48] = tested on: SN12C renal
[49] = tested on: SNB-19 CNS
[50] = tested on: SNB-75 CNS
[51] = tested on: SR leukemia
[52] = tested on: SW-620 colon
[53] = tested on: T-47D breast
[54] = tested on: TK-10 renal
[55] = tested on: U251 CNS
[56] = tested on: UACC-257 melanoma
[57] = tested on: UACC-62 melanoma
[58] = tested on: SK-MEL-28 melanoma
[59] = tested on: UO-31 renal

Cc1coc2c1CC1(C)C(CCC(O)C1C)C2 (centres undefined)
TGI [1]: > 100 µM
TGI [2]: > 100 µM
TGI [3]: > 100 µM
TGI [4]: > 100 µM
TGI [5]: > 100 µM
TGI [6]: > 100 µM
TGI [7]: > 100 µM
TGI [8]: > 100 µM
TGI [9]: > 100 µM
TGI [10]: > 100 µM
TGI [11]: > 100 µM
TGI [12]: > 100 µM
TGI [13]: > 100 µM
TGI [14]: > 100 µM
TGI [15]: > 100 µM
TGI [16]: > 100 µM
TGI [17]: > 100 µM
TGI [18]: > 100 µM
TGI [19]: > 100 µM
TGI [20]: > 100 µM
TGI [21]: > 100 µM
TGI [22]: > 100 µM
TGI [23]: > 100 µM
TGI [24]: > 100 µM
TGI [25]: > 100 µM
TGI [26]: > 100 µM
TGI [27]: > 100 µM
TGI [28]: > 100 µM
TGI [29]: > 100 µM
TGI [30]: > 100 µM
TGI [31]: > 100 µM
TGI [32]: > 100 µM
TGI [33]: > 100 µM
TGI [34]: > 100 µM
TGI [35]: > 100 µM
TGI [36]: > 100 µM
TGI [37]: > 100 µM
TGI [38]: > 100 µM
TGI [39]: > 100 µM
TGI [40]: > 100 µM
TGI [41]: > 100 µM
TGI [42]: > 100 µM
TGI [43]: > 100 µM
TGI [44]: > 100 µM
TGI [45]: > 100 µM
TGI [46]: > 100 µM
TGI [47]: > 100 µM
TGI [48]: > 100 µM
TGI [49]: > 100 µM
TGI [50]: > 100 µM
TGI [51]: > 100 µM
TGI [52]: > 100 µM
TGI [53]: > 100 µM
TGI [54]: > 100 µM
TGI [55]: > 100 µM
TGI [56]: > 100 µM
TGI [57]: > 100 µM

CC1=C(C)[C@@]2(C)O[C@@]2(C)O[C@@]2(C)O[C@@]12C
TGI [2]: > 100 µM
TGI [3]: > 100 µM
TGI [4]: > 100 µM
TGI [5]: > 100 µM
TGI [6]: > 100 µM
TGI [8]: > 100 µM
TGI [9]: > 100 µM
TGI [10]: > 100 µM
TGI [12]: > 100 µM
TGI [13]: > 100 µM
TGI [15]: > 100 µM
TGI [16]: > 100 µM
TGI [17]: > 100 µM
TGI [18]: > 100 µM
TGI [20]: > 100 µM
TGI [21]: > 100 µM
TGI [22]: > 100 µM
TGI [23]: > 100 µM
TGI [24]: > 100 µM
TGI [25]: > 100 µM
TGI [26]: > 100 µM
TGI [27]: > 100 µM
TGI [28]: > 100 µM
TGI [30]: > 100 µM
TGI [31]: > 100 µM
TGI [33]: > 100 µM
TGI [34]: > 100 µM
TGI [36]: > 100 µM
TGI [37]: > 100 µM
TGI [38]: > 100 µM
TGI [39]: > 100 µM
TGI [42]: > 100 µM
TGI [43]: > 100 µM
TGI [45]: > 100 µM
TGI [58]: > 100 µM
TGI [46]: > 100 µM
TGI [47]: > 100 µM
TGI [48]: > 100 µM
TGI [49]: > 100 µM
TGI [50]: > 100 µM
TGI [51]: > 100 µM
TGI [53]: > 100 µM
TGI [54]: > 100 µM
TGI [55]: > 100 µM
TGI [56]: > 100 µM
TGI [57]: > 100 µM
TGI [59]: > 100 µM

COC(=O)C1CCC(=O)N1C(c1ccccc1)c1ccc(OC)c(OC)c1 (centres undefined)
TGI [1]: > 100 µM
TGI [2]: > 100 µM
TGI [3]: > 100 µM
TGI [4]: > 100 µM
TGI [5]: > 100 µM
TGI [6]: > 100 µM
TGI [8]: > 100 µM
TGI [9]: > 100 µM
TGI [10]: > 100 µM
TGI [11]: > 100 µM
TGI [12]: > 100 µM
TGI [13]: > 100 µM
TGI [14]: > 100 µM
TGI [15]: > 100 µM
TGI [16]: > 100 µM
TGI [17]: > 100 µM
TGI [18]: > 100 µM
TGI [19]: > 100 µM
TGI [20]: > 100 µM
TGI [21]: > 100 µM
TGI [22]: > 100 µM
TGI [23]: > 100 µM
TGI [24]: > 100 µM
TGI [25]: > 100 µM
TGI [26]: > 100 µM
TGI [27]: > 100 µM
TGI [28]: > 100 µM
TGI [30]: > 100 µM
TGI [31]: > 100 µM
TGI [32]: > 100 µM
TGI [33]: > 100 µM
TGI [34]: > 100 µM
TGI [35]: > 100 µM
TGI [36]: > 100 µM
TGI [37]: > 100 µM
TGI [38]: > 100 µM
TGI [39]: > 100 µM
TGI [40]: > 100 µM
TGI [42]: > 100 µM
TGI [43]: > 100 µM
TGI [44]: > 100 µM
TGI [45]: > 100 µM
TGI [58]: > 100 µM
TGI [46]: > 100 µM
TGI [47]: > 100 µM
TGI [48]: > 100 µM
TGI [49]: > 100 µM
TGI [50]: > 100 µM
TGI [51]: > 100 µM
TGI [52]: > 100 µM
TGI [53]: > 100 µM
TGI [54]: > 100 µM
TGI [55]: > 100 µM
TGI [56]: > 100 µM
TGI [57]: > 100 µM
TGI [59]: > 100 µM

C=C(C1=CC(=O)C(C)(C)O1)[C@@H]1CC=C([C@@H]2CC[C@H]3[C@@]2(C)CC[C@H]2C(C)(C)C(=O)[C@H](O)C[C@]32C)[C@H](O)O1
TGI [1]: 0.79 µM
TGI [2]: 9.89 µM
TGI [3]: 30.7 µM
TGI [4]: 3.04 µM
TGI [5]: 21.6 µM
TGI [6]: 14.2 µM
TGI [8]: 3.51 µM
TGI [9]: 2.91 µM
TGI [10]: 22.2 µM
TGI [11]: 7.49 µM
TGI [12]: 3 µM
TGI [13]: 5.16 µM
TGI [14]: 8.11 µM
TGI [15]: 8.33 µM
TGI [16]: 4.11 µM
TGI [17]: 13.1 µM
TGI [18]: 3.48 µM
TGI [19]: 5.48 µM
TGI [20]: 8.01 µM
TGI [21]: 20.4 µM
TGI [22]: 3.45 µM
TGI [23]: 3.08 µM
TGI [24]: 5.27 µM
TGI [25]: 1.61 µM
TGI [26]: 4.74 µM
TGI [27]: 8.04 µM
TGI [28]: 3.58 µM
TGI [29]: 3.96 µM
TGI [30]: 40.3 µM
TGI [31]: 12.6 µM
TGI [32]: 31.6 µM
TGI [34]: 25.4 µM
TGI [35]: 2.4 µM
TGI [36]: 10.3 µM
TGI [37]: 28 µM
TGI [38]: 4.75 µM
TGI [39]: 2.68 µM
TGI [41]: 3.59 µM
TGI [42]: 3.76 µM
TGI [43]: 22 µM
TGI [44]: 2.73 µM
TGI [45]: 5.56 µM
TGI [58]: 12.2 µM
TGI [46]: 24.1 µM
TGI [47]: 27.9 µM
TGI [48]: 5.18 µM
TGI [49]: 24.8 µM
TGI [50]: 25.1 µM
TGI [53]: 3.41 µM
TGI [54]: 2.64 µM
TGI [55]: 3.06 µM
TGI [56]: 4.52 µM
TGI [57]: 14.9 µM
TGI [59]: 2.88 µM
